Source: ChEMBL document CHEMBL1134113, “Selective inhibition of Src SH2 by a novel thiol-targeting tricarbonyl-modified inhibitor and mechanistic analysis by (1)H/(13)C NMR spectroscopy” (Bioorg Med Chem Lett, 2001)
Activity calls are given as the source filed them. The rule behind the calls is not given here.

Legend:
[1] = molecular target: Proto-oncogene tyrosine-protein kinase Src (Homo sapiens, UniProt P12931, C188A); assay: (§1) Binding affinity for Cys188Ala Src SH2 domain mutant using BIAcore binding assay
[2] = molecular target: T1, Proto-oncogene tyrosine-protein kinase Src (Homo sapiens, UniProt P12931); assay: Binding affinity for wild type Src SH2 domain using BIAcore binding assay
[3] = molecular target: T1, Proto-oncogene tyrosine-protein kinase Src; assay: Selectivity for Src SH2 domain compared to Cys188Ala Src SH2 domain mutants
[4] = system: Proto-oncogene tyrosine-protein kinase Src (Homo sapiens), P12931 [C188A]; assay: as §1; conditions: concentration not given here

IC50 [1] [µM]	IC50 [2] [µM]	Selectivity [3]	inhibition [4] [%]	Structure (SMILES)
> 1000	2.3	Active	–	CC[C@H](C)[C@H](NC(=O)[C@H](CCC(=O)O)NC(=O)[C@H](CCC(=O)O)NC(=O)C(Cc1ccc(C(=O)C(=O)C(=O)OC)cc1)NC(C)=O)C(N)=O (stereo not given in full)
> 1000	20	Active	–	CC[C@H](C)[C@H](NC(=O)[C@H](CCC(=O)O)NC(=O)[C@H](CCC(=O)O)NC(=O)CCc1ccc(C(=O)C(O)(O)C(=O)OC)cc1)C(N)=O
> 1000	8.6	Active	–	COC(=O)C(=O)C(=O)c1ccc(CC(NC(C)=O)C(=O)N[C@@H](CCC(=O)O)C(=O)N[C@H](C(=O)N[C@@H](CC(C)C)C(N)=O)[C@@H](C)O)cc1 (stereo not given in full)
> 1000	18	Active	–	CC[C@H](C)[C@H](NC(=O)[C@H](CCC(=O)O)NC(=O)[C@H](CCC(=O)O)NC(=O)CCc1cccc(C(=O)C(O)(O)C(=O)OC)c1)C(N)=O
> 1000	100	Active	–	COC(=O)C(O)(O)C(=O)c1ccccc1
–	250	inactive	15	CC[C@H](C)[C@H](NC(=O)[C@H](CCC(=O)O)NC(=O)[C@H](CCC(=O)O)NC(=O)CCc1cccc(C(=O)O)c1)C(N)=O

Structure (SMILES)	IC50 [1] [µM]	IC50 [2] [µM]	Selectivity [3]	inhibition [4] [%]
CC[C@H](C)[C@H](NC(=O)[C@H](CCC(=O)O)NC(=O)[C@H](CCC(=O)O)NC(=O)[C@@H](N)Cc1ccc(OP(=O)(O)O)cc1)C(=O)O	1.33	1.2	–	–
